Measured values: patent US6784172B2, “Processes for preparation of cyclopenta[b][1,4]diazepino[6,7,1-hi]indoles and derivatives” (Wyeth, priority 2000, dated 2004)

Structure (SMILES) | melting point [°C]
CC(=O)N1CCN2c3c(cccc3C3CCCC32)C1 (racemic) [Example 3, 3-Acetyl-1,2,3,4,8,9,10,10a-octahydro-7bH-cyclopenta[b][1,4]diazepino[6,7,1-hi]indole] | 111 to 113
c1cc2c3c(c1)c1c(n3CCNC2)CCC1 [Example 1, 1,2,3,4,9,10-Hexahydro-8H-cyclopenta[b][4,1]diazepino[6,7,1-hi]indole] | 66 to 68
